Laboratory results published in US20090054392A1, “NAPHTHYLPYRIMIDINE, NAPHTHYLPYRAZINE AND NAPHTHYLPYRIDAZINE ANALOGS AND THEIR USE AS AGONISTS OF THE WNT-BETA-CATENIN CELLULAR MESSAGING SYSTEM” (Wyeth, priority 2007, published 2009).

System: Dkk1-LRP5-TCF-Luciferase
Assay: Functional Dkk1-LRP5-TCF-Luciferase Assay in U2OS Cells
Conditions: for EC50 / fold induction at 2 µM / fold induction at 20 µM: Homo sapiens, U2OS; for fold induction at 2 µM: read-out: B = TCF ACTIVITY/DMSO CONTROL Fold induction @ 2.0 uM, 2.0 uM compound; for fold induction at 20 µM: read-out: C = TCF ACTIVITY/DMSO CONTROL Fold induction @ 20.0 uM, 20.0 uM compound; for A = MAX FOLD Induction/DMSO CONTROL: maximum fold induction over DMSO control

| Compound | EC50 [µM] | A = MAX FOLD Induction/DMSO CONTROL [fold] | fold induction at 2 µM | fold induction at 20 µM |
| --- | --- | --- | --- | --- |
| CO[C@@H]1CCN(c2nccc(-c3ccc4ccccc4c3)n2)C1 [2-[(3R)-3-methoxypyrrolidin-1-yl]-4-(2-naphthyl)pyrimidine] | 0.659 | 1.990 | 1.36 | 3.1 |
| c1ccc2cc(-c3ccnc(N4CC[C@H](n5ccnc5)C4)n3)ccc2c1 [2-[(3S)-3-(1H-imidazol-1-yl)pyrrolidin-1-yl]-4-(2-naphthyl)pyrimidine] | 3.93 | 3.800 | 1.29 | 3.92 |
| c1ccc2cc(-c3ccnc(N4CC[C@@H](Cn5ccnc5)C4)n3)ccc2c1 [2-[(3S)-3-(1H-imidazol-1-ylmethyl)pyrrolidin-1-yl]-4-(2-naphthyl)pyrimidine] |  | 2.430 | 1.27 | 4.29 |
| CO[C@H]1CCN(c2nccc(-c3ccc4ccccc4c3)n2)C1 [2-[(3S)-3-methoxypyrrolidin-1-yl]-4-(2-naphthyl)pyrimidine] | 2.58 | 1.755 | 1.48 | 2.27 |
| CCN(CCO)CC1CCN(c2nccc(-c3ccc4ccccc4c3)n2)C1 (stereo not shown) [2-[ethyl({1-[4-(2-naphthyl)pyrimidin-2-yl]pyrrolidin-3-yl}methyl)amino]ethanol] | 2.26 | 3.635 | 2.8 | 0.01 |
| CCN(CCO)C[C@H]1CCN(c2nccc(-c3ccc4ccccc4c3)n2)C1 [2-[ethyl({(3R)-1-[4-(2-naphthyl)pyrimidin-2-yl]pyrrolidin-3-yl}methyl)amino]ethanol] | 2.92 | 3.895 | 2.93 | 0.15 |
| c1ccc2cc(-c3ccnc(N4CCC4)n3)ccc2c1 [2-azetidin-1-yl-4-(2-naphthyl)pyrimidine] |  |  | 1.37 | 1.58 |
| CC(C)CNCC1CCN(c2nccc(-c3ccc4ccccc4c3)n2)CC1 [2-methyl-N-({1-[4-(2-naphthyl)pyrimidin-2-yl]piperidin-4-yl}methyl)propan-1-amine] |  | 1.480 | 1.4 | 0.14 |
| CC(C)(C)NCC1CCN(c2nccc(-c3ccc4ccccc4c3)n2)C1 (stereo not shown) [2-methyl-N-({1-[4-(2-naphthyl)pyrimidin-2-yl]pyrrolidin-3-yl}methyl)propan-2-amine] | 1.37 | 3.106 | 1.99 | 0.018 |
| CS(=O)(=O)OCCC1CCN(c2nccc(-c3ccc4ccccc4c3)n2)CC1 [2-{1-[4-(2-naphthyl)pyrimidin-2-yl]piperidin-4-yl}ethyl methanesulfonate] |  |  | 1.02 | 1.18 |
| CN1CCN(CC2CCN(c3nccc(-c4ccc5ccccc5c4)n3)C2)CC1 (stereo not shown) [2-{3-[(4-methylpiperazin-1-yl)methyl]pyrrolidin-1-yl}-4-(2-naphthyl)pyrimidine] |  | 1.340 | 2.7 |  |
| CN1CCN(CC2CCN(c3nccc(-c4ccc5ccccc5c4)n3)CC2)CC1 [2-{4-[(4-methylpiperazin-1-yl)methyl]piperidin-1-yl}-4-(2-naphthyl)pyrimidine] | 1.19 | 5.430 | 5.46 |  |
| NCC[C@H]1CCCN1c1nccc(-c2ccc3ccccc3c2)n1 [2-{(2R)-1-[4-(2-naphthyl)pyrimidin-2-yl]pyrrolidin-2-yl}ethanamine] |  | 2.270 | 2.72 | 0.01 |
| NCC[C@@H]1CCCN1c1nccc(-c2ccc3ccccc3c2)n1 [2-{(2S)-1-[4-(2-naphthyl)pyrimidin-2-yl]pyrrolidin-2-yl}ethanamine] |  | 2.950 | 4.08 | 0.02 |
| CN1CCN(C(=O)[C@@H]2CCCN2c2nccc(-c3ccc4ccccc4c3)n2)CC1 [2-{(2S)-2-[(4-methylpiperazin-1-yl)carbonyl]pyrrolidin-1-yl}-4-(2-naphthyl)pyrimidine] |  |  | 0.9 | 1.6 |
| c1ccc2cc(-c3ccnc(N4CC[C@@H](N5CCN6CCCCC6C5)C4)n3)ccc2c1 (stereo partly drawn) [2-{(3R)-1-[4-(2-naphthyl)pyrimidin-2-yl]pyrrolidin-3-yl}octahydro-2H-pyrido[1,2-a]pyrazine] |  |  | 1.3 |  |
| CN1CCN(C[C@@H]2CCN(c3nccc(-c4ccc5ccccc5c4)n3)C2)CC1 [2-{(3S)-3-[(4-methylpiperazin-1-yl)methyl]pyrrolidin-1-yl}-4-(2-naphthyl)pyrimidine] |  |  | 1.8 |  |
| CN(CCCO)[C@@H]1CCN(c2nccc(-c3ccc4ccccc4c3)n2)C1 [3-(methyl{(3R)-1-[4-(2-naphthyl)pyrimidin-2-yl]pyrrolidin-3-yl}amino)propan-1-ol] |  |  |  | 3.3 |
| CN(CCCO)[C@H]1CCN(c2nccc(-c3ccc4ccccc4c3)n2)C1 [3-(methyl{(3S)-1-[4-(2-naphthyl)pyrimidin-2-yl]pyrrolidin-3-yl}amino)propan-1-ol] |  |  | 1.1 |  |
| NC(=O)N1CC(CNc2nccc(-c3ccc4ccccc4c3)n2)C1 [3-({[4-(2-naphthyl)pyrimidin-2-yl]amino}methyl)azetidine-1-carboxamide] |  |  | 1.09 | 1.58 |
| c1ccc(N2CCN(c3nccc(-c4ccc5ccccc5c4)n3)CC2)nc1 [4-(2-naphthyl)-2-(4-pyridin-2-ylpiperazin-1-yl)pyrimidine] |  |  | 1.8 |  |
| c1cnc(N2CCN(c3nccc(-c4ccc5ccccc5c4)n3)CC2)nc1 [4-(2-naphthyl)-2-(4-pyrimidin-2-ylpiperazin-1-yl)pyrimidine] |  |  | 1.02 | 1.24 |
| c1ccc2cc(-c3ccnc(N4CCC(CN5CCCCC5)C4)n3)ccc2c1 (stereo not shown) [4-(2-naphthyl)-2-[3-(piperidin-1-ylmethyl)pyrrolidin-1-yl]pyrimidine] |  |  | 1.66 | 0.01 |
| c1ccc2cc(-c3ccnc(N4CCC(CN5CCCC5)C4)n3)ccc2c1 (stereo not shown) [4-(2-naphthyl)-2-[3-(pyrrolidin-1-ylmethyl)pyrrolidin-1-yl]pyrimidine] | 7.59 | 7.000 | 1.87 |  |
| CC(C1CCN(c2nccc(-c3ccc4ccccc4c3)n2)CC1)[N+](=O)[O-] (stereo not shown) [4-(2-naphthyl)-2-[4-(1-nitroethyl)piperidin-1-yl]pyrimidine] |  |  |  | 1.44 |

More lines, main results first:

| EC50 [µM] | A = MAX FOLD Induction/DMSO CONTROL [fold] | Compound | fold induction at 2 µM | fold induction at 20 µM |
| --- | --- | --- | --- | --- |
| 0.696 | 7.175 | CN1CCN([C@H]2CCN(c3nccc(-c4ccc5ccccc5c4)n3)C2)CC1 [2-[(3S)-3-(4-methylpiperazin-1-yl)pyrrolidin-1-yl]-4-(2-naphthyl)pyrimidine] | 5.69 | 0.01 |
|  | 2.760 | CCN(CCO)CC1CCN(c2nccc(-c3ccc4ccccc4c3)n2)CC1 [2-[ethyl({1-[4-(2-naphthyl)pyrimidin-2-yl]piperidin-4-yl}methyl)amino]ethanol] | 4.93 | 0.01 |
|  | 3.540 | CCN(CCO)C[C@@H]1CCN(c2nccc(-c3ccc4ccccc4c3)n2)C1 [2-[ethyl({(3S)-1-[4-(2-naphthyl)pyrimidin-2-yl]pyrrolidin-3-yl}methyl)amino]ethanol] | 3.48 | 0.04 |
| 10.6 | 3.890 | CC(C)(C)NCC1CCN(c2nccc(-c3ccc4ccccc4c3)n2)CC1 [2-methyl-N-({1-[4-(2-naphthyl)pyrimidin-2-yl]piperidin-4-yl}methyl)propan-2-amine] | 1.49 | 5.76 |
|  | 2.300 | CC(C)(C)NC[C@H]1CCN(c2nccc(-c3ccc4ccccc4c3)n2)C1 [2-methyl-N-({(3R)-1-[4-(2-naphthyl)pyrimidin-2-yl]pyrrolidin-3-yl}methyl)propan-2-amine] | 2.24 | 0.01 |
|  | 4.610 | CC(C)(C)NC[C@@H]1CCN(c2nccc(-c3ccc4ccccc4c3)n2)C1 [2-methyl-N-({(3S)-1-[4-(2-naphthyl)pyrimidin-2-yl]pyrrolidin-3-yl}methyl)propan-2-amine] | 2.44 | 0.06 |
|  | 1.420 | NCCC1CCN(c2nccc(-c3ccc4ccccc4c3)n2)CC1 [2-{1-[4-(2-naphthyl)pyrimidin-2-yl]piperidin-4-yl}ethanamine] | 2.15 | 0.005 |
|  | 1.840 | OCCC1CCN(c2nccc(-c3ccc4ccccc4c3)n2)CC1 [2-{1-[4-(2-naphthyl)pyrimidin-2-yl]piperidin-4-yl}ethanol] | 1.54 | 1.64 |
| 0.7 | 5.940 | NCCC1CCN(c2nccc(-c3ccc4ccccc4c3)n2)C1 (stereo not shown) [2-{1-[4-(2-naphthyl)pyrimidin-2-yl]pyrrolidin-3-yl}ethanamine] | 4.23 |  |
|  | 1.600 | CN1CCN(C(=O)[C@H]2CCCN2c2nccc(-c3ccc4ccccc4c3)n2)CC1 [2-{(2R)-2-[(4-methylpiperazin-1-yl)carbonyl]pyrrolidin-1-yl}-4-(2-naphthyl)pyrimidine] | 1.01 | 2.09 |
|  | 2.180 | CN1CCN(C[C@H]2CCN(c3nccc(-c4ccc5ccccc5c4)n3)C2)CC1 [2-{(3R)-3-[(4-methylpiperazin-1-yl)methyl]pyrrolidin-1-yl}-4-(2-naphthyl)pyrimidine] | 2.5 | 0.01 |
